“And” between values parts separate entries of the source, which are not always exact repeats. Identical values can stand only once. Toxic doses and inconclusive results are not listed. Cut-off read from the data, not from the text of the source: active = T/C of 150% or more; inactive = T/C below 125%.
Tested on: L1210 leukemia ip in BDF1 mice, survival T/C
Assay: NCI In Vivo Anticancer Drug Screen. Data for tumor model L1210 Leukemia (intraperitoneal) in B6D2F1 (BDF1) mice
Conditions: endpoint: mean survival time, higher = longer survival
Method in brief: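 In this screen, tumor-bearing mice given compound are compared to those given vehicle, and their survival values are reported as a treated-to-control quotient.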

[1] = dose: 100.0 mg/kg/injection, schedule: Q01DX001 (ip), vehicle: saline with Tween-80
[2] = dose: 100.0 mg/kg/injection, schedule: Q01DX001 (ip), vehicle: saline
[3] = dose: 100.0 mg/kg/injection, schedule: Q01DX009 (ip), vehicle: saline
[4] = dose: 100.0 mg/kg/injection, schedule: Q04DX003 (ip), vehicle: saline
[5] = dose: 200.0 mg/kg/injection, schedule: Q01DX001 (ip), vehicle: saline
[6] = dose: 200.0 mg/kg/injection, schedule: Q01DX009 (ip), vehicle: saline
[7] = dose: 200.0 mg/kg/injection, schedule: Q04DX003 (ip), vehicle: saline
[8] = dose: 400.0 mg/kg/injection, schedule: Q01DX009 (ip), vehicle: saline
[9] = dose: 400.0 mg/kg/injection, schedule: Q04DX003 (ip), vehicle: saline
[10] = dose: 100.0 mg/kg/injection, schedule: Q01DX001 (ip), vehicle: other
[11] = dose: 200.0 mg/kg/injection, schedule: Q01DX001 (ip), vehicle: other
[12] = dose: 400.0 mg/kg/injection, schedule: Q01DX001 (ip), vehicle: other
[13] = dose: 50.0 mg/kg/injection, schedule: Q04DX003 (ip), vehicle: saline with Tween-80
[14] = dose: 100.0 mg/kg/injection, schedule: Q04DX003 (ip), vehicle: saline with Tween-80
[15] = dose: 50.0 mg/kg/injection, schedule: Q01DX009 (ip), vehicle: saline with Tween-80
[16] = dose: 25.0 mg/kg/injection, schedule: Q01DX009 (ip), vehicle: saline
[17] = dose: 100.0 mg/kg/injection, schedule: Q01DX009 (ip), vehicle: saline with Tween-80
[18] = dose: 200.0 mg/kg/injection, schedule: Q01DX009 (ip), vehicle: saline with Tween-80

Measured: T/C

CCCCCCCCCCC(C)CCCCCCCC (configuration not stated)
inactive: [1] 113 % of control | dose: 200.0 mg/kg/injection, schedule: Q01DX001 (ip), vehicle: saline with Tween-80 100 % of control | dose: 400.0 mg/kg/injection, schedule: Q01DX001 (ip), vehicle: saline with Tween-80 94 % of control

CCCC(NC(C)=O)C(=O)O (configuration not stated)
inactive: [2] 94 % of control | [3] 94 % of control and 101 % of control | dose: 100.0 mg/kg/injection, schedule: Q04DX002 (ip), vehicle: saline 98 % of control and 111 % of control and 112 % of control | [4] 98 % of control | [5] 96 % of control | [6] 94 % of control and 90 % of control | dose: 200.0 mg/kg/injection, schedule: Q04DX002 (ip), vehicle: saline 108 % of control and 122 % of control and 123 % of control | [7] 96 % of control | dose: 400.0 mg/kg/injection, schedule: Q01DX001 (ip), vehicle: saline 93 % of control | [8] 99 % of control and 87 % of control | dose: 400.0 mg/kg/injection, schedule: Q04DX002 (ip), vehicle: saline 98 % of control and 111 % of control and 112 % of control | [9] 95 % of control

O=C(N/N=C\c1ccc(O)cc1O)c1ccco1
inactive: [10] 90 % of control | [11] 93 % of control | [12] 96 % of control

C(=C\c1cccnc1)/c1ccncc1
inactive: [13] 97 % of control | [14] 102 % of control

CCc1cccc(CC)c1N=C=Nc1c(CC)cccc1CC
inactive: dose: 100.0 mg/kg/injection, schedule: Q04DX003 (ip), vehicle: other 104 % of control | dose: 200.0 mg/kg/injection, schedule: Q04DX003 (ip), vehicle: other 100 % of control | dose: 400.0 mg/kg/injection, schedule: Q04DX003 (ip), vehicle: other 104 % of control

CC#CC(C)(O)C(=O)OC (configuration not stated)
inactive: [10] 105 % of control | [11] 98 % of control | [12] 94 % of control

CCOC(=O)N\C(N)=N/N=C(C)\C=N\N=C(/N)NC(=O)OCC
inactive: dose: 15.0 mg/kg/injection, schedule: Q01DX Z (ip), vehicle: carboxymethylcellulose (CMC) 95 % of control | dose: 30.0 mg/kg/injection, schedule: Q01DX Z (ip), vehicle: carboxymethylcellulose (CMC) 101 % of control | dose: 60.0 mg/kg/injection, schedule: Q01DX Z (ip), vehicle: carboxymethylcellulose (CMC) 106 % of control | dose: 120.0 mg/kg/injection, schedule: Q01DX Z (ip), vehicle: carboxymethylcellulose (CMC) 97 % of control

Cc1cc(C)c(C)c(C(=O)O)c1C
inactive: dose: 100.0 mg/kg/injection, schedule: Q01DX001 (ip), vehicle: acetone 98 % of control | dose: 100.0 mg/kg/injection, schedule: Q01DX009 (ip), vehicle: acetone 101 % of control | [4] 88 % of control | dose: 200.0 mg/kg/injection, schedule: Q01DX001 (ip), vehicle: acetone 89 % of control | dose: 200.0 mg/kg/injection, schedule: Q01DX009 (ip), vehicle: acetone 106 % of control | [7] 102 % of control | dose: 400.0 mg/kg/injection, schedule: Q01DX001 (ip), vehicle: acetone 94 % of control | dose: 400.0 mg/kg/injection, schedule: Q01DX009 (ip), vehicle: acetone 105 % of control | [9] 112 % of control

[O-]/[N+](=N/O)c1ccc(Cl)cc1
inactive: dose: 25.0 mg/kg/injection, schedule: Q01DX001 (ip), vehicle: saline with Tween-80 96 % of control | dose: 25.0 mg/kg/injection, schedule: Q01DX009 (ip), vehicle: saline with Tween-80 100 % of control | dose: 25.0 mg/kg/injection, schedule: Q04DX003 (ip), vehicle: saline with Tween-80 103 % of control | dose: 50.0 mg/kg/injection, schedule: Q01DX001 (ip), vehicle: saline with Tween-80 92 % of control | [15] 94 % of control | [13] 94 % of control | [1] 100 % of control | [14] 92 % of control

c1ccc2c(c1)CNNC2
inactive: [16] 97 % of control | dose: 50.0 mg/kg/injection, schedule: Q01DX009 (ip), vehicle: saline 96 % of control | [3] 102 % of control | [6] 103 % of control | [8] 105 % of control

CC(C)CN1C(c2ccccc2)=CN(Cc2ccccc2)C=C1c1ccccc1
inactive: dose: 100.0 mg/kg/injection, schedule: Q04DX002 (ip), vehicle: Klucel (hydroxypropylcellulose) (HPC) 100 % of control | dose: 200.0 mg/kg/injection, schedule: Q04DX002 (ip), vehicle: Klucel (hydroxypropylcellulose) (HPC) 120 % of control | dose: 400.0 mg/kg/injection, schedule: Q04DX002 (ip), vehicle: Klucel (hydroxypropylcellulose) (HPC) 113 % of control

N#CC(C#N)=Cc1cc(Cl)ccc1O
inactive: [2] 96 % of control | [5] 96 % of control

COc1ccccc1CNCc1ccccc1
inactive: dose: 75.0 mg/kg/injection, schedule: Q01DX001 (ip), vehicle: other 101 % of control

[CH3][Sn]([CH3])([Br])[CH2]CCBr
inactive: dose: 0.78 mg/kg/injection, schedule: Q01DX009 (ip), vehicle: saline 100 % of control | dose: 1.56 mg/kg/injection, schedule: Q01DX009 (ip), vehicle: saline 100 % of control

CCN(CC)CCC1CCNCC1
inactive: dose: 6.25 mg/kg/injection, schedule: Q01DX009 (ip), vehicle: saline 101 % of control | dose: 12.5 mg/kg/injection, schedule: Q01DX009 (ip), vehicle: saline 95 % of control | dose: 12.5 mg/kg/injection, schedule: Q04DX003 (ip), vehicle: saline 100 % of control | [16] 98 % of control | dose: 25.0 mg/kg/injection, schedule: Q04DX003 (ip), vehicle: saline 96 % of control

Cc1cccc2c1/C(=N\Nc1ccc([N+](=O)[O-])cc1[N+](=O)[O-])CC(C)(C)C2
inactive: [17] 104 % of control | [18] 100 % of control | dose: 400.0 mg/kg/injection, schedule: Q01DX009 (ip), vehicle: saline with Tween-80 100 % of control

COC1OCC(OS(C)(=O)=O)C(NC(C)=O)C1OS(C)(=O)=O (configuration not stated)
inactive: dose: 100.0 mg/kg/injection, schedule: Q01DX001 (ip), vehicle: carboxymethylcellulose (CMC) 104 % of control | dose: 177.0 mg/kg/injection, schedule: Q01DX001 (ip), vehicle: carboxymethylcellulose (CMC) 100 % of control | dose: 200.0 mg/kg/injection, schedule: Q01DX001 (ip), vehicle: carboxymethylcellulose (CMC) 98 % of control | dose: 266.0 mg/kg/injection, schedule: Q01DX001 (ip), vehicle: carboxymethylcellulose (CMC) 94 % of control and 108 % of control | dose: 400.0 mg/kg/injection, schedule: Q01DX001 (ip), vehicle: carboxymethylcellulose (CMC) 94 % of control and 103 % of control | dose: 600.0 mg/kg/injection, schedule: Q01DX001 (ip), vehicle: carboxymethylcellulose (CMC) 97 % of control

O=C1Nc2ccc3c(c2/C1=C\c1cc2c(cc1Br)OCO2)OCO3
inactive: dose: 50.0 mg/kg/injection, schedule: Q01DX001 (ip), vehicle: alcohol 93 % of control | dose: 100.0 mg/kg/injection, schedule: Q01DX001 (ip), vehicle: alcohol 93 % of control | dose: 200.0 mg/kg/injection, schedule: Q01DX001 (ip), vehicle: alcohol 98 % of control | dose: 400.0 mg/kg/injection, schedule: Q01DX001 (ip), vehicle: alcohol 96 % of control

CCCCNC(=O)/C=C\C(=O)O
inactive: [15] 95 % of control | dose: 100.0 mg/kg/injection, schedule: Q01DX009 (ip), vehicle: Klucel (hydroxypropylcellulose) (HPC) 87 % of control | [17] 97 % of control | [3] 92 % of control | dose: 100.0 mg/kg/injection, schedule: Q04DX003 (ip), vehicle: Klucel (hydroxypropylcellulose) (HPC) 100 % of control | dose: 200.0 mg/kg/injection, schedule: Q01DX009 (ip), vehicle: Klucel (hydroxypropylcellulose) (HPC) 87 % of control | [18] 95 % of control | [6] 94 % of control | dose: 400.0 mg/kg/injection, schedule: Q01DX009 (ip), vehicle: Klucel (hydroxypropylcellulose) (HPC) 100 % of control | [8] 97 % of control | dose: 400.0 mg/kg/injection, schedule: Q04DX003 (ip), vehicle: Klucel (hydroxypropylcellulose) (HPC) 87 % of control

CCN(CC)c1cc(C(C)(C)C)cc(C(C)(C)C)c1
inactive: dose: 100.0 mg/kg/injection, schedule: Q04DX003 (ip), vehicle: saline sonified 114 % of control | dose: 200.0 mg/kg/injection, schedule: Q04DX003 (ip), vehicle: saline sonified 94 % of control | dose: 400.0 mg/kg/injection, schedule: Q04DX003 (ip), vehicle: saline sonified 101 % of control
